According to article PMC8362126, “Proteolysis Targeting Chimera (PROTAC) for Macrophage Migration Inhibitory Factor (MIF) Has Anti‐Proliferative Activity in Lung Cancer Cells” (Angewandte Chemie (International Ed. in English), 2021):
Entries after “also recorded” stand apart in the source; their conditions may differ.

Tests used:
[1] = test system: A549 cell spheroids; assay: 3D tumor spheroid assay; type: cell-based, human; details: 5 μM, 12 days
Description: A 3D spheroid model was employed to investigate the effect of longer term MD13 treatment in a more complex model for tumor growth. The 3D spheroid model was established using A549 cancer cells by a method adapted from Feng et al.[48] The spheroids were grown over a 12‐day period in absence or presence of PROTAC MD13. Each spheroid was prepared from about 1000 A549 cells. After three‐day incubation, these spheroids were treated with 1, 2, or 5 μM of MD13 with 72 hours intervals over 12 days. Spheroid growth was monitored by measuring the diameter and this was compared to day 0 of the treatment. The tumor spheroids in MD13 treated groups were significant smaller compared to the control group (Figure 5 B and Figure S9). With continuous exposure to 1, 2, or 5 μM of MD13 for 12 days, the growth of the spheroid tumor volume was inhibited by 42 %, 53 %, and 81 % compared with control group, respectively. […]
Tumor spheroid assay. A549 cells (1000 cells/well) were seeded onto a 96-well round-bottomed ultra low attachment plate (Corning). After 2 days of incubation without disturbance, the spheroid was treated with indicated compound every 3 days. […]
(1 picture or pasted object on this page, not shown here) […]
inverted microscope (Nikon Eclipse Ti) connected with a NIS-elements software. The data were analyzed and plotted with Graphpad Prism8. […]
cells were seeded in an ultralow attachment 96-well round-bottomed plate (1000 cells/well) to generate tumor spheroids (a single spheroid per well). After initiation, the spheroids were treated with different compounds at the indicated concentrations every three days. DMSO was used as vehicle control. The day of the first treatment was indicated as day 0. (A) Representative images were obtained at the indicated intervals using an inverted microscope. Scale bar: 500 μm. (B) Analysis was carried out using NIS-Elements AR 3.1 software, and growth curves were obtained relative to the untreated spheroids (day 0) and plotted with GraphPad Prism 8. Values are shown as means ± SD (n = 3 spheroids/time point, **p < 0.01 vs control). […]

[2] = test system: A549 cells; assay: CyQUANT cell proliferation assay; type: cell-based, human; details: concentrations up to 20 μM, 72 hours
Description: S8. Cell growth, cell cycle and pERK signaling study
Cell proliferation was measured with the CyQUANT® Direct Cell Proliferation Assay Kit (Thermo Fisher, #C35011). A549 cells were cultured in 96-well plates at a density of 1,000 cells/well and treated with different concentrations of MIF PROTAC (0.02-20 μM) for 72 h.
Cells were incubated with detection reagent (100 μL) for 60 min at 37 °C with 5% CO2. The fluorescence of each well was read at 485/535nm by plate reader (BioTek).
Figure S8. Cells were seeded with a density of 1000 cells per well in a 96-well plate. After overnight incubation, the cells were treated with various concentration of MD13 for 72 hours.
The resulting cells were quantified by CyQUANT® cell proliferation assays and compared with the vehicle (DMSO) control (n=3). […]
(also on this page, place not known: (0.02 -20 CO 2. (20 µM) 4 (20 µM) µM 20 µM 0.01 µM 0.08 µM 0.74 µM 6.7 µM 20 µM 0 50 100 Cell (%) H441 n.s. * * ** *** * n.s. MD15 96 -well MD13 proliferation control 96 -well round - 2 3) […]
(1 picture or pasted object on this page, not shown here)

[3] = target: T1, MIF (Homo sapiens, UniProt P14174); assay: MIF degradation in A549 cells, western-blot; type: cell-based; set-up: endogenous in cells; host or cells: A549 (ATCC CCL-185); details: A549 cells
T1 sequence (P14174 2-115 limits assumed): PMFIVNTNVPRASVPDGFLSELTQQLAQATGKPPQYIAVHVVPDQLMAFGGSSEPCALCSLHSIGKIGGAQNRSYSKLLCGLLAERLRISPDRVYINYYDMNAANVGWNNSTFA
Description: The concentration dependence of PROTAC MD13‐mediated induction of MIF degradation in A549 cells was investigated using western‐blot. […] The MIF levels were normalized to the vehicle treated control and plotted to the respective MD13 concentrations. This provided a DC50 of around 100 nM and a maximal degradation of around 90–95 % at concentrations higher than 1 μM (Figure 3 B). The DC50 of MD13 measured by ELISA assay was about 200 nM (Figure 3 C), which is in line with the result from western‐blot. […]
Cell lysates were prepared using the protocol described above. About 10−40 μg of total protein was mixed with the 4× Laemmli Loading Dye (250 mM Tris, pH 6.8, 40% glycerol, 5% SDS, 0.005% bromophenol blue, 4% β-mercaptoethanol) and heated at 95−100 °C for 5 min and loaded onto a 12% Bis-Tris gel (Bio-Rad Laboratories, #4561084) and proteins were separated at 120V. Afterwards, proteins were transferred to polyvinylidene fluoride (PVDF) membranes, subsequently non-specific antibody binding was blocked with 5% nonfat dry milk (BIO-RAD, #1706404) in TBST buffer and incubated overnight at 4 °C with one of the following primary antibodies: anti-MIF (1:1000, ThermoFisher, #PA5-27343 ) or anti-β-actin (1:10000 Cell Signalling, #8457). The membranes were further incubated with a goat anti-rabbit HRP-conjugated secondary antibody (1:2000, DAKO, p0448) for 2 h at room temperature. Proteins were visualized with an ECLTM Prime Western Blotting System (GE Healthcare #RPN2232). The immunoblot was generated by ChemiDoc MP Imaging Systems (Bio-Rad) and analyzed by the ImageJ software. […]
As a control, the same experiment was repeated and analyzed by a western-blot assay (Figure 3B). The potency estimated from the Western blot assay was 1 µM (Figure 3C), which is consistent with the result from the ELISA assay. The “Hook effect” […]

[4] = test system: ERK phosphorylation; assay: ERK phosphorylation by western blot; type: cell-based, human; details: A549, 2 μM; 3 and 4 for 24 h, MD15 for 6, 24 or 48 h
Description: The effect of treatment with MIF‐directed PROTAC MD13 on MIF‐related signaling pathways was investigated by assessment of ERK phosphorylation using western blot analysis. […] Thus treatment with the MIF‐directed PROTAC MD13 inhibits ERK phosphorylation as a MIF‐related signaling event. […]
ERK signaling pathway study. A549 cells (2x10^5 cells per well) were seeded into each well of a 6-well plate with 2 mL RPMI-1640 medium containing 10% FBS (Costar Europe, Badhoevedorp, The Netherlands), and 1% penicillin/streptomycin solution (Corning). After overnight culturing, the cells were treated with MD13, MD15, or DMSO for the time indicated.
After that, cells were lysed by RIPA buffer containing 1× PhosSTOP and protease inhibitor (PI) cocktail (Roche, Mannheim, Germany). The BCA Protein Assay Kit (Pierce, Rockford IL, USA) was used to determine the protein concentration. 30 µg protein was separated by a pre-cast 10% NuPAGE Bis-Tris gel (Invitrogen, USA) and then transferred to a polyvinylidene difluoride (PVDF) membrane. After blocking with 5% of skimmed milk for 1 hour at room temperature and incubation with the appropriate primary antibody (pERK, #9101, Cell Signaling, 1:1000; GAPDH, #97166, Cell Signaling, 1:10000) overnight at 4 °C, the membrane was treated with an HRP-conjugated secondary goat anti-rabbit antibody (#P0448, Dako, 1:2000) or rabbit anti-mouse antibody (#P0260, Dako, 1:2000) at room temperature for 1 hour.
The protein bands were visualized with enhanced chemiluminescence (ECL) solution (GE Healthcare). The figures were quantified with imageJ software based on grayscale. […]

Nc1cccc2c1C(=O)N(C1CCC(=O)NC1=O)C2=O (centres unmarked) [compound 4, pomalidomide]
influence on spheroid tumor growth [1]: no significant influence
effect on cell proliferation [2]: no effect; also recorded: no or little effect
rescue of MD9 mediated MIF degradation ([3]; 2 hours pretreatment (1 100 µM, 3 50 µM, 4 50 µM, Bortezomib), then 10 µM MD9 12 h): partial to complete rescue; also recorded: rescued
rescue of MD13 mediated MIF degradation ([3]; co-treatment (Bortezomib) or 1 hour pretreatment (3, 4) with MD13): rescued MIF from degradation; also recorded: able to abolish the MD13 triggered degradation
effect on pERK levels [4]: no significant decrease
